Data reported in US20230406865A1, “CRYSTAL FORM OF FREE BASE OF INHIBITOR CONTAINING BICYCLIC RING DERIVATIVE AND PREPARATION METHOD AND APPLICATION OF CRYSTAL FORM” (SHANGHAI HANSOH BIOMEDICAL CO., LTD., priority 2020, published 2023).

What was measured:
KIF5B-RET = target: T1, KIF5B-RET (Homo sapiens, UniProt P07949); assay: HTRF kinase activity inhibition, KIF5B-RET; format: biochemical; conditions: ATP at Km
T1 construct: purchased SignalChem R02-19FG-05; the other entry of the earlier key: KIF5B (P33176, Kinesin-1 heavy chain)
T1 sequence (P07949 with tags, fused parts or gaps): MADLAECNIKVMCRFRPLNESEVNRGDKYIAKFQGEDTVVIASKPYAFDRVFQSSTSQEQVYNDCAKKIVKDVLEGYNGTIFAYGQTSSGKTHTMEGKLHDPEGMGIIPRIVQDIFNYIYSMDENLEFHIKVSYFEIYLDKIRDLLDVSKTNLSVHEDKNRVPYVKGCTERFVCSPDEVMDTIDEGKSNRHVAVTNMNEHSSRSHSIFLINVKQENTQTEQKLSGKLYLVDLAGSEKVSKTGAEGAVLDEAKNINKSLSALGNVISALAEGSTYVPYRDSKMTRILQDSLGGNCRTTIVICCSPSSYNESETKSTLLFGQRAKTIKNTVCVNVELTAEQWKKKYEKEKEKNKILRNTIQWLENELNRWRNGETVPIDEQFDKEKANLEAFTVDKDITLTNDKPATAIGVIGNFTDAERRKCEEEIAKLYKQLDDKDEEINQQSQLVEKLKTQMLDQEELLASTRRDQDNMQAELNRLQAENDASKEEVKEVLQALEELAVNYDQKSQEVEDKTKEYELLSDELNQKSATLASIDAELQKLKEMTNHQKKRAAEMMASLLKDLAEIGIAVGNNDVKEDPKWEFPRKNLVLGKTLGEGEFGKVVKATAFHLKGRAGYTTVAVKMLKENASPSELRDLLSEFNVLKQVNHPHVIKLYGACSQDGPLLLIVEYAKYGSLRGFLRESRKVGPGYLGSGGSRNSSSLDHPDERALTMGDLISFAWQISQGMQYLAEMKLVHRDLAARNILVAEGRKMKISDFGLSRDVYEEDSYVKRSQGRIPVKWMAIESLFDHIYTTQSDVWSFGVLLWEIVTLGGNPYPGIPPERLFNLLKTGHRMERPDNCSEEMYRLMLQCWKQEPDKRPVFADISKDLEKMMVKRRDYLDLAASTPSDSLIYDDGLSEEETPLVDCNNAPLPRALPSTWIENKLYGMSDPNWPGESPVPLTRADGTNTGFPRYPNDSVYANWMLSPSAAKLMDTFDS
From the text: 2.2 Experimental Reagents: • RET enzyme was purchased from Carna Company, and the article number was 08-159; • RET M918T enzyme was purchased from Carna Company, and the article number was 08-508; • KIF5B-RET was purchased from SignalChem Company, the article number was R02-19FG-05; • CCDC6-RET was purchased from SignalChem Company, the article number was R02-19BG-05; • RET V804M enzyme was purchased from Thermofisher Company, and the article number was PV6223; • RET V804L enzyme was purchased from Thermofisher Company, and the article number was PV4397; • HTRF KinEASE-TK kit was purchased from Cisbio Company, and the article number was 62TK0PEC; • ATP was purchased from Thermofisher Company, and the article number was PV3227; • 384-well plate was purchased from PerkinElmer Company, and the article number was 6007290.
In this experiment, a homogeneous time-resolved fluorescence (HTRF) method was used for the detection of compounds on RET kinase activity.

[1] = tested on: xenograft tumor of human myeloid thyroid cancer cell TT; assay: Subcutaneous xenograft tumor model of human myeloid thyroid cancer cell TT; format: in vivo, BALB/c nude mice
Protocol: BALB/c nude mice, female, 6-8 weeks old, weighing 18-22 g, provided by Shanghai Lingchang Biotechnology Co., Ltd.
TT cells were cultured in vitro in a monolayer under the following conditions: F-12K medium with 20% heat-inactivated fetal bovine serum and 1% penicillin-streptomycin double antibodies at 37° C. and 5% CO2. Digestion with trypsin-EDTA was performed to treat the passage twice a week. When cells were in an exponential growth period, cells were collected, counted and inoculated.
TT cells were collected when they were full in a logarithmic growth period, ensuring vitality over 90%. 0.2 mL of cell suspension containing about 1×10^7 of TT cells (cells suspended in basic F-12K medium and added with 50% Matrigel) was inoculated subcutaneously into the right back […] of each mouse when the mean volume of the tumor reached about 150-200 mm^3 to start group administration.
1. The day of grouping was day 0 (DO). The interval of BID administration was 6-8 h/18-16 h. The first administration was given in the afternoon of day DO and the last administration was given in the morning of day D21.
2. Administration volume: 10 μL/g according to the body weight of nude mice.
Animal grouping: animals were weighed before administration and the tumor volume was measured. Animals were randomly grouped according to tumor volume (randomized grouping design) with 5 animals per group.
Experimental index: the diameter of tumor was measured by vernier caliper twice a week. The tumor volume was calculated by the formula: V=a×b^2/2, a and b denote the long and short diameter of the tumor, respectively. The tumor inhibition efficacy of the compounds was evaluated by TGI (%). TGI (%)=(1-(TVTreatment/Dx−TVTreatment/D1)/(TVControl/Dx−TVControl/D1))×100%.

Structure (SMILES) | IC50 (KIF5B-RET) | Tumor volume (mean ± SEM) d 0 ([1]; 30 mg/kg oral BID) | Tumor inhibition rate/TGI d 22 ([1]; 30 mg/kg oral BID) | Tumor volume (mean ± SEM) d 22 ([1]; 30 mg/kg oral BID) | Tumor volume (mean ± SEM) d 0 ([1]; 10 mg/kg oral BID) | Tumor inhibition rate/TGI d 22 ([1]; 10 mg/kg oral BID) | Tumor volume (mean ± SEM) d 22 ([1]; 10 mg/kg oral BID)
C#C[C@](C)(O)COc1cc(-c2ccc(N3CC4CC(C3)N4Cc3ccc(OC)nc3)nc2)c2c(C#N)cnn2c1 [Embodiment 64, 6-(((S)-2-hydroxy-2-methylbut-3-yn-1-yl)oxy)-4-(6-(6-((6-methoxypyridin-3-yl)methyl)-3,6-diazabicyclo[3.1.1]heptan-3-yl)pyridin-3-yl)pyrazolo[1,5-a]pyridine-3-carbonitrile] | 0.36 nM | – | – | – | – | – | –
C#C[C@@](C)(O)COc1cc(-c2ccc(N3CC4CC(C3)N4Cc3ccc(OC)nc3)nc2)c2c(C#N)cnn2c1 [Embodiment 63, 6-(((R)-2-hydroxy-2-methylbut-3-yn-1-yl)oxy)-4-(6-(6-((6-methoxypyridin-3-yl)methyl)-3,6-diazabicyclo[3.1.1]heptan-3-yl)pyridin-3-yl)pyrazolo[1,5-a]pyridine-3-carbonitrile] | 0.53 nM | – | – | – | – | – | –
COc1ncc(CN2C3CC2CN(c2ccc(-c4cc(C#CC(C)(C)O)cn5ncc(C#N)c45)cn2)C3)cc1F [Embodiment 18, 4-(6-(6-((5-Fluoro-6-methoxypyridin-3-yl)methyl)-3,6-diazabicyclo[3.1.1]heptan-3-yl)pyridin-3-yl)-6-(3-hydroxy-3-methylbut-1-yn-1-yl)pyrazolo[1,5-a]pyridine-3-carbonitrile] | 0.97 nM | 199.73 ± 24.07 mm^3 | 99.64% | 203.56 ± 31.74 mm^3 | – | – | –
COc1ccc(CN2C3CC2CN(c2ccc(-c4cc(N5CC(C)(C#N)C5)cn5ncc(C#N)c45)cn2)C3)cn1 [Embodiment 77, 6-(3-Cyano-3-methylazetidin-1-yl)-4-(6-(6-((6-methoxypyridin-3-yl)methyl)-3,6-diazabicyclo[3.1.1]heptan-3-yl)pyridin-3-yl)pyrazolo[1,5-a]pyridine-3-carbonitrile] | 0.42 nM | – | – | – | 205.23 ± 16.57 mm^3 | 129.77% | 144.14 ± 8.95 mm^3
